According to patent publication US20210205292A1, “INHIBITORS OF CREB-CBP INTERACTION FOR TREATMENT OF LEUKEMIA” (The Board of Trustees of the Leland Stanford Junior …, priority 2016, published 2021):
Entries after “also recorded” stand apart in the source; their conditions may differ.

Tests used:
CREB/CBP association = target: T1, CREB/CBP association (Homo sapiens, UniProt Q92793); experiment: Anti-CBP immunoprecipitation of CREB-transfected HEK293 cells; type: cell-based; details: HEK293 lysates or cells, 5 μM, 1 hour
T1 construct: endogenous in cells; host or cells: HEK293 cells (CBP endogenous; CREB from a transfected plasmid)
T1 sequence (Q92793 whole entry): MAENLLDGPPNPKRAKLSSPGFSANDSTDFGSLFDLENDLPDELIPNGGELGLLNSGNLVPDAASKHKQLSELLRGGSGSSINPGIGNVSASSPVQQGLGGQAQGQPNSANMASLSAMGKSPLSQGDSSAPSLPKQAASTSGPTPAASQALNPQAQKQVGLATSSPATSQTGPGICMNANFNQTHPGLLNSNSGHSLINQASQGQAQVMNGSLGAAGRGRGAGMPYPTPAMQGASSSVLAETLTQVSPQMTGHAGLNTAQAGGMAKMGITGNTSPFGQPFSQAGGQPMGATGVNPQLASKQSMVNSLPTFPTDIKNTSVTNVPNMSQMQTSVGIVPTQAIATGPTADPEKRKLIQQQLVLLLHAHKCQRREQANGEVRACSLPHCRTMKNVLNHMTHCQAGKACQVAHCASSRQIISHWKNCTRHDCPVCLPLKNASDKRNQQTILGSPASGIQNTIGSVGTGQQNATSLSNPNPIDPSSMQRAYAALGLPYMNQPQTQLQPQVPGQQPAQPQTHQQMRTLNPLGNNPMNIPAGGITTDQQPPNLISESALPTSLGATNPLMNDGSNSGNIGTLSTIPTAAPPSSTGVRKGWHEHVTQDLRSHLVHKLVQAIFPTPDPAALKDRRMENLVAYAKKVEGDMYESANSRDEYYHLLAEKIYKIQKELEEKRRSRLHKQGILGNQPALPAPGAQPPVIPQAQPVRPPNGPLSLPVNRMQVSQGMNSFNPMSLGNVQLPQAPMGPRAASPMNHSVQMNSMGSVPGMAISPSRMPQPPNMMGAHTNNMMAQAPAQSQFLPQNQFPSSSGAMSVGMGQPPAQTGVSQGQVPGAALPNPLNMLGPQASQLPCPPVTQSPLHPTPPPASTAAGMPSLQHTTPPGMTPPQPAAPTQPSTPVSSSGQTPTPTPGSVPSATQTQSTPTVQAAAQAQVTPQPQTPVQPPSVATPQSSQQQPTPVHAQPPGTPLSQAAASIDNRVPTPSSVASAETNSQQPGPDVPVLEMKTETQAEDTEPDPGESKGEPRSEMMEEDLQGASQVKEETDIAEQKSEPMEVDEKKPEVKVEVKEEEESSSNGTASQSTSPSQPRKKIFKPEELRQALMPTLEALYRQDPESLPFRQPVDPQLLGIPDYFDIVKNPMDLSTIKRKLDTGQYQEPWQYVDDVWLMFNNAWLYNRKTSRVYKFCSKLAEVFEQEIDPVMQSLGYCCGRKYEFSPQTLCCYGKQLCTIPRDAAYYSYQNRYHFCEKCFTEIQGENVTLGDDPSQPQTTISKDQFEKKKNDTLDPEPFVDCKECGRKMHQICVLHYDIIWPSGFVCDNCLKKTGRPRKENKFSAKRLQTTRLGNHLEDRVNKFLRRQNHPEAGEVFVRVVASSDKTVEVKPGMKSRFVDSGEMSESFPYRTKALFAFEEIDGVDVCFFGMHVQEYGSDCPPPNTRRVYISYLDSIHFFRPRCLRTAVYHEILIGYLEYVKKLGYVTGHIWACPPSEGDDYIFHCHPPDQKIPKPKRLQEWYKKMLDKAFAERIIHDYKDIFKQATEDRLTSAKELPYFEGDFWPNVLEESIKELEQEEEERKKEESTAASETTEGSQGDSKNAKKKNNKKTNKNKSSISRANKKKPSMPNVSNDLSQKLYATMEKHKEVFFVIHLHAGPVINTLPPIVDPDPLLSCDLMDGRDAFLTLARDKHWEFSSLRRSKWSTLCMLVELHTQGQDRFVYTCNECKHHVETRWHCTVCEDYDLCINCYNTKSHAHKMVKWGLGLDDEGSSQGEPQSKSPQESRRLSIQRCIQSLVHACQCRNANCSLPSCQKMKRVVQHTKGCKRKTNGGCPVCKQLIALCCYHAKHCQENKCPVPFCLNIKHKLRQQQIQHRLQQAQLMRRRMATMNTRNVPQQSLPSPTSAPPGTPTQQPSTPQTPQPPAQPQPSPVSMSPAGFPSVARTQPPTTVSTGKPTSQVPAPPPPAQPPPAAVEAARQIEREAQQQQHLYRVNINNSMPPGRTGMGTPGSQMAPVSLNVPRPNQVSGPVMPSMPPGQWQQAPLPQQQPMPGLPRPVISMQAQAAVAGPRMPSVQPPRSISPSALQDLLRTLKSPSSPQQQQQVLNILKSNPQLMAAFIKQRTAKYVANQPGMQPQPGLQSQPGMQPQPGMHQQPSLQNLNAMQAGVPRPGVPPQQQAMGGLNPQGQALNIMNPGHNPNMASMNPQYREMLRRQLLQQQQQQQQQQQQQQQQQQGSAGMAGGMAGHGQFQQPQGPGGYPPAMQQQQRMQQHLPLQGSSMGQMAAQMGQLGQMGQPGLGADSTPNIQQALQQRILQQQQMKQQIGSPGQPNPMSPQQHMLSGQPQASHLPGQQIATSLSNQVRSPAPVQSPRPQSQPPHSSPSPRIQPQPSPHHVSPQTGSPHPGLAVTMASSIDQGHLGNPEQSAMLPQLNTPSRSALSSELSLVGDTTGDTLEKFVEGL
Protocol: Mutation of Arginine-600 to Alanine reduced binding of Compound A by ˜45% at a concentration of 5 μM, while a KIX mutant lacking amino acids 586-602 reduced binding by ˜70%. Panel C) Binding model of Compound A to CBP KIX domain. […] Panel E). Two KG-1 cell lines were generated in which luciferase was expressed either under the control of a CREB-driven promoter (CRE) or a CMV-driven promoter (CMV). These two cell lines were each treated with a range of Compound A or Analog B concentrations for 6 hours. […] HEK293 cells were transfected with a plasmid expressing CREB. Cells were treated with Compound A (A, 5 μM, lane 3) or DMSO vehicle (D) for 1 hour. Total lysates of transfected HEK293 cells were immunoprecipitated using anti-CBP antibody. Compound A (A, 5 μM) was added during anti-CBP Immunoprecipation process (lane 1). Immunoprecipitates (CBP-IP) and total lysates were analyzed by immunoblotting for phospho-CREB (p-CREB) and CBP.
To test the ability of Compound A to disrupt CREB-CBP binding in cells, a split Renilla luciferase complementation assay was performed. […] This early timepoint was selected to permit accurate reporter gene activity measurement prior to the onset of anticipated global cell dysfunction or death induced by Compound A. Treatment with 3 μM Compound A reduced luciferase activity by 33.2±7.7% at this timepoint. […]

[1] = target: T2, KIX domain of CBP, mutant lacking amino acids 586-602 (GST fusion) (Homo sapiens, UniProt Q92793); experiment: Biacore surface plasmon resonance, binding to KIX deletion mutant versus native KIX; details: 5 μM
T2 construct: spans CBP amino acids 586-666; made in house; host or cells: E. coli BL21(DE3)
T2 sequence (Q92793 with tags, fused parts or gaps, stated change not applied): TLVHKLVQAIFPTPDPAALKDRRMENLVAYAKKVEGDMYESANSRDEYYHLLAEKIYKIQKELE
Protocol: KIX domain mutants were created by standard cloning and mutagenesis methods in the pGEX4T3 vector (GE Healthcare Life Sciences). GST-KIX fusion proteins were expressed in BL21(DE3-) cells (New England Biolabs) following induction with 1 mM IPTG for 6 hours at 37 degrees. GST-KIX and its mutants were purified with the B-PER GST Fusion Protein Spin Purification Kit (Thermo Scientific/Pierce). Surface Plasmon Resonance (Biacore) analysis was performed on a GE Biacore 3000 surface plasmon resonance instrument in collaboration with the Stanford Protein and Nucleic Acid (PAN) Facility.
To confirm the binding of Compound A to the KIX domain of CBP, the KIX domain was expressed and purified as a fusion protein with Glutathione-S-Transferase (GST). Binding of Compound A to the KIX domain and two KIX domain mutants in which residues critical for CREB binding were altered or removed (Arg-600 mutated to Alanine or deletion of amino acids 586-602) was determined by Surface Plasmon Resonance (Biacore) analysis (FIG. 1, panel B). Mutation of Arginine-600 to Alanine reduced binding of Compound A by ˜45%, while a KIX domain mutant lacking amino acids 586-602 reduced binding by ˜70%. […] A hypothetical binding model between Compound A and CBP KIX domain is shown (FIG. 1, panel C). […]

H3K27 acetylation = experiment: Western blot of total and H3K27-specific histone acetylation; type: cell-based; details: 6 or 24 hours
Protocol: Cells were lysed in RIPA buffer (Sigma), and the protein concentrations were determined by BCA assay (Thermo Scientific Pierce). Lysates were solubilized in 6×SDS PAGE buffer and […] of protein was loaded into 6-15% SDS PAGE gels, pheresed, and then transferred onto […] PVDF membrane (Millipore). Primary antibodies were applied at a dilution of 1:1000. Anti-Bcl-2, -Bax, -Mcl-1, -Bcl-XL, -Cyclin A and -Cyclin D1 antibodies were purchased from Cell Signaling Technologies. Anti-total acetylated histone and -ac-H3K27 were purchased from Santa Cruz Biotechnologies. Anti-actin and -CREB antibodies were purchased from upstate. Secondary antibodies were used at a 1:2500 dilution and purchased from Thermo Scientific/Pierce. WesternBright ECL was used for image acquisition on Image Lab software (Bio-Rad).

normal bone marrow cells = experiment: Normal bone marrow samples, viability; type: cell-based, human; details: 72 hours
CMV-driven promoter = experiment: CMV-driven luciferase reporter in KG-1 cells; type: cell-based; details: 6 hours
Protocol: KG-1 cell lines were created to express luciferase in a CREB-dependent or non-CREB-dependent fashion using lentiviral gene delivery. Cells were sorted for mCherry expression by flow cytometry and selected with puromycin. Luciferase activity was measured on a […] using the Promega Luciferase Activity Kit (Promega) per manufacturer's instructions following six hours of treatment with Compound A or 0.1% DMSO. The split Renilla luciferase complementation assay has been described previously (Li BX, and Xiao X. Discovery of a small-molecule inhibitor of the KIX-KID interaction. Chembiochem: a European journal of chemical biology. 2009; 10(17):2721-4). In this assay, the KID and KIX domains were fused to the N- and C-terminal regions of Renilla luciferase, respectively. Once KIX binds phosphorylated KID, the Renilla luciferase regions were brought together, resulting in luciferase activity.
To test the ability of Compound A to disrupt CREB-CBP binding in cells, a split Renilla luciferase complementation assay was performed. […] This early timepoint was selected to permit accurate reporter gene activity measurement prior to the onset of anticipated global cell dysfunction or death induced by Compound A. Treatment with 3 μM Compound A reduced luciferase activity by 33.2±7.7% at this timepoint. […] Thus, Compound A inhibits CREB function through disruption of CREB:CBP interaction.

## N#Cc1ccc(NC(=O)c2cc3ccccc3cc2O)cc1 [Compound A, N-(4-cyanophenyl)-3-hydroxy-2-naphthamide]
CREB/CBP association
  binding of CREB to CBP (immunoprecipitation): inhibits CREB/CBP association; also recorded: prevented binding of CREB to CBP
[1]
  reduction of binding of Compound A by KIX mutant lacking amino acids 586-602: ~70%
H3K27 acetylation
  H3K27 acetylation (Western blot): specific decrease in H3K27 acetylation
Normal bone marrow cells
  viability of normal bone marrow cells: did not significantly change
CMV-driven promoter
  CMV-driven luciferase expression: unchanged
